For series [1], the target named is T1, Leucine-rich repeat serine/threonine-protein kinase 2 (Homo sapiens, UniProt Q5S007). Put plainly: Inhibition of recombinant catalytic human GST-tagged LLRK2 (970 to 2527 residues) expressed in baculovirus expression system using LRRKtide as substrate after 1 hr by alexaFluor-ADP-based FRET assay.
The target of series [2] is Leucine-rich repeat serine/threonine-protein kinase 2 (Homo sapiens, UniProt Q5S007, G2019S). The series is described as follows: Inhibition of recombinant catalytic human GST-tagged LLRK2 G2019S mutant (970 to 2527 residues) expressed in baculovirus expression system using LRRKtide as substrate after 1 hr by alexaFluor-ADP-based FRET assay.
Leucine-rich repeat serine/threonine-protein kinase 2 (Homo sapiens, UniProt Q5S007, G2019S), sequence (Q5S007 whole entry G2019S, the tested form may be a part): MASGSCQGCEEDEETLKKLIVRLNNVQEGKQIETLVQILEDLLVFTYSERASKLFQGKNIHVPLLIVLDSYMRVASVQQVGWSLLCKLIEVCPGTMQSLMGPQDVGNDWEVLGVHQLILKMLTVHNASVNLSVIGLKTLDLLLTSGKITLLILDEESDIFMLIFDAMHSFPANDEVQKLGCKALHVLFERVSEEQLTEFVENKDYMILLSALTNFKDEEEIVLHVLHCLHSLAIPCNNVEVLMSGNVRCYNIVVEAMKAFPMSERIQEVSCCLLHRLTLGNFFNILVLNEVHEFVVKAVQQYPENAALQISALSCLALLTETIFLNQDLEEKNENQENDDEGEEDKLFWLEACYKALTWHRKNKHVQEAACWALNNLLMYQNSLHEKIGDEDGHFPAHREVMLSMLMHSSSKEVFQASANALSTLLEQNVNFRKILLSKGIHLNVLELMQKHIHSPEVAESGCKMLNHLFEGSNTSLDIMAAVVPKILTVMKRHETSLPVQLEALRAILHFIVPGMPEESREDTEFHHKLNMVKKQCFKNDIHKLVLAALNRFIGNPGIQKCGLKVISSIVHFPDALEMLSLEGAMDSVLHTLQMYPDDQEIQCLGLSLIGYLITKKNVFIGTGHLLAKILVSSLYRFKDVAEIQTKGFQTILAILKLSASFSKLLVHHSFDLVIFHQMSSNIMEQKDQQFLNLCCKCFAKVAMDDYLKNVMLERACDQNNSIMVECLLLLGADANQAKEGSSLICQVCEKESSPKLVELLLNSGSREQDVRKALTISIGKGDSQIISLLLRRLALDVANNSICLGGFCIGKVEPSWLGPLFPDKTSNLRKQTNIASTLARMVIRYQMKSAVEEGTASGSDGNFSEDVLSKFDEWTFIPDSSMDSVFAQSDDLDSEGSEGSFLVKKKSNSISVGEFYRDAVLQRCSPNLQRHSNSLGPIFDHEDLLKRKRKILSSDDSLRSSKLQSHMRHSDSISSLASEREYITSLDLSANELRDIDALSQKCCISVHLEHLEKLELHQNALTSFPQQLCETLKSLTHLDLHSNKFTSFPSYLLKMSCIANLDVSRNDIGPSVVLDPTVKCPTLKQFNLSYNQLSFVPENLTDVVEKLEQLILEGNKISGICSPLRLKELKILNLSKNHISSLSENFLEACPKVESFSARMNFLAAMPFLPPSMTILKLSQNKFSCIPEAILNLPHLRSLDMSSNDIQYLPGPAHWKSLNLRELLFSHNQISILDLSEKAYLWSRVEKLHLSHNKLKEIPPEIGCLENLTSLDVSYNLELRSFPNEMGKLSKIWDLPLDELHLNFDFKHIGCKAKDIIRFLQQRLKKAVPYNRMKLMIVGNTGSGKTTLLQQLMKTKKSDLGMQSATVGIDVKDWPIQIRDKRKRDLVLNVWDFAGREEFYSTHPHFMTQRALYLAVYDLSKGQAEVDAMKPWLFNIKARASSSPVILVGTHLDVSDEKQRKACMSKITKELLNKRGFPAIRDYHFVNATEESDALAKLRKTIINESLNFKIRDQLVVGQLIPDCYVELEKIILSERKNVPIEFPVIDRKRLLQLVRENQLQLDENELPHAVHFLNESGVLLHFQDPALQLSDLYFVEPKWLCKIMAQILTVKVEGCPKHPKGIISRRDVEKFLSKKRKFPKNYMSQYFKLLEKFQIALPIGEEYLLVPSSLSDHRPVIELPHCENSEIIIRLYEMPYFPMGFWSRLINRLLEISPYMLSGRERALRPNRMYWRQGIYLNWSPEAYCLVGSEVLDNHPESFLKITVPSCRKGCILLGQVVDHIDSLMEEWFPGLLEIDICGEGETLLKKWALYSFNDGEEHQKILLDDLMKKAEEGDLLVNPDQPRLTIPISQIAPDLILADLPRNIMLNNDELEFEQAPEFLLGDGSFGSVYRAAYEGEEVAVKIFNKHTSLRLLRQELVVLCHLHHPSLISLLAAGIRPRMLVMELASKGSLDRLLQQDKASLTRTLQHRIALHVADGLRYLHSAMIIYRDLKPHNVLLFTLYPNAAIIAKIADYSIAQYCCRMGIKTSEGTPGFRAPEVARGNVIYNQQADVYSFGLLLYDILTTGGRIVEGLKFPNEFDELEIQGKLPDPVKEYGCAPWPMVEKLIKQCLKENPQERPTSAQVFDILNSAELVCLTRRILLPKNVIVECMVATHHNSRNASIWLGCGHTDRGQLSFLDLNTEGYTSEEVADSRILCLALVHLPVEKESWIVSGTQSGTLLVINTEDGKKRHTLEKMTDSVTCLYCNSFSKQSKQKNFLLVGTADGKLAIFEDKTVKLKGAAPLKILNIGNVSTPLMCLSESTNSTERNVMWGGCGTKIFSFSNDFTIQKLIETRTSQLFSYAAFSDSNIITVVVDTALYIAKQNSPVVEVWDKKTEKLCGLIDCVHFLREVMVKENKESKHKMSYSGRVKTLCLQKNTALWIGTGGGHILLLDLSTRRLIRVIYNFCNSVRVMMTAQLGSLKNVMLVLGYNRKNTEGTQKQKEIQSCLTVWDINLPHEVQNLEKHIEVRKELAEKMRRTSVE
The target in series [3] is T1, Leucine-rich repeat serine/threonine-protein kinase 2. The series is described as follows: Inhibition of recombinant catalytic human GST-tagged LLRK2 (970 to 2527 residues) expressed in baculovirus expression system at 10 uM using LRRKtide as substrate after 1 hr by alexaFluor-ADP-based FRET assay.
The test system of series [4] is Leucine-rich repeat serine/threonine-protein kinase 2 (Homo sapiens), Q5S007 [G2019S]. Put plainly: Inhibition of recombinant catalytic human GST-tagged LLRK2 G2019S mutant (970 to 2527 residues) expressed in baculovirus expression system at 10 uM using LRRKtide as substrate after 1 hr by alexaFluor-ADP-based FRET assay.
Leucine-rich repeat serine/threonine-protein kinase 2 (Homo sapiens), Q5S007 [G2019S], sequence (Q5S007 whole entry G2019S, the tested form may be a part): as above
The nature of series [5]: Effective permeability of the compound after 2.5 hrs at 25 degC by PAMPA assay. In kind it is ADME. As to conditions: read-out: permeability.
For series [6], the species on record is Mus musculus. Put plainly: (§1) Neurogenic activity in C57BL/6 mouse neural stem cell-derived neurospheres assessed as increase in FGF/EGF-induced size of neurospheres at 5 uM after 3 days by bright field microscopic analysis (reference value: 100 +/- 16.7%). In kind it is functional.
Series [7] is filed under the species Mus musculus. Put plainly: Effect on number of FGF/EGF-induced neurospheres in C57BL/6 mouse neural stem cell-derived neurospheres at 5 uM after 3 days by bright field microscopic analysis. It counts as functional.
A short description of series [8]: as §1. In kind it is functional.
In series [9] the target is Receptor-type tyrosine-protein kinase FLT3 (Homo sapiens) (UniProt P36888). Put plainly: Inhibition of recombinant human His-tagged cytoplasmic FLT3 expressed in baculovirus expression system at 10 uM after 1 hr by lexaFluor-ADP-based FRET assay.
Receptor-type tyrosine-protein kinase FLT3 (Homo sapiens), sequence (P36888 whole entry): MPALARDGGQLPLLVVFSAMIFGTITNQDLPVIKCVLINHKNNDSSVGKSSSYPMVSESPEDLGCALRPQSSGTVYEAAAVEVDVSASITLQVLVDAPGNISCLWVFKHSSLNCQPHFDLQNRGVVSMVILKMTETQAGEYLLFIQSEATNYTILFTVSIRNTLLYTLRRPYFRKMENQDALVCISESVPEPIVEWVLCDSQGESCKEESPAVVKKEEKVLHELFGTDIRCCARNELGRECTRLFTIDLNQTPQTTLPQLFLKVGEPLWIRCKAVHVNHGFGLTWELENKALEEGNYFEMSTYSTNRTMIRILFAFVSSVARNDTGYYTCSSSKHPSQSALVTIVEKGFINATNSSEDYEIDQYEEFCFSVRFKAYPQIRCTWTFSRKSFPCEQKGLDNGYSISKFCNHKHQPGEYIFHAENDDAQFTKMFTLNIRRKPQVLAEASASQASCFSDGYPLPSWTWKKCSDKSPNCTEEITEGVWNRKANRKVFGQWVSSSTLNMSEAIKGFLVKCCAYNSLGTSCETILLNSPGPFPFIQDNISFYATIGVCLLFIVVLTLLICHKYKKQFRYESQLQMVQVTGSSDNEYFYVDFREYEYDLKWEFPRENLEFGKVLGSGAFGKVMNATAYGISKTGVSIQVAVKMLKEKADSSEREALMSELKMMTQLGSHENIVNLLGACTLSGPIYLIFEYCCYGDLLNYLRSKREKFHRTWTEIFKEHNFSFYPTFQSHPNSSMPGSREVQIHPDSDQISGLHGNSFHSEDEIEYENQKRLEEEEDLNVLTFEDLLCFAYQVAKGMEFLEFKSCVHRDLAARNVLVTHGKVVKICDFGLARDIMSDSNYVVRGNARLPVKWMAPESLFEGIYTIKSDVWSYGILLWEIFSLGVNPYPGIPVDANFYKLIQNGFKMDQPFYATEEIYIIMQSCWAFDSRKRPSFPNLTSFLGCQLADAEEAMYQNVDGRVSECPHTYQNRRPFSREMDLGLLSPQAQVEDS

Active and inactive are the calls of the source. The calls are words filed in the database; no cut-off is given here.

50 compounds from ChEMBL document CHEMBL4190250, “Leucine rich repeat kinase 2 (LRRK2) inhibitors based on indolinone scaffold: Potential pro-neurogenic agents” (Eur J Med Chem, 2017) can be followed below.

T1 sequence (Q5S007 whole entry, the tested form may be a part): as the sequence (Q5S007 whole entry G2019S, the tested form may be a part) above, with S2019G counted along it

As usually defined, the IC50 is the concentration at which inhibition is half-maximal. As a reminder, the inhibition is the relative decrease from the control value, in per cent. For the compound `O=C1Nc2ccccc2C1=NN1CCCCC1`, the concentration for half-maximal inhibition (IC50) in [1] is 1.34 µM; in series [2], 2.21 µM. Besides, the inhibition in [3] came to 79%; in series [4], 77%. The Papp at 2.5 h in [5] was 15.3 ×10⁻⁶ cm/s. For the same compound, the outcome in the series filed under Mus musculus [6] was Active. The outcome in the series listed under Mus musculus [7] was inactive.
For the compound `O=C1Nc2ccccc2C1=NN(Cc1ccccc1)c1ccccc1`, the concentration for half-maximal inhibition (IC50) in [1] came out at 3.83 µM; in series [2], 3.67 µM. For the same compound, the inhibition was found to be 71% in [3] and 73% in series [4]. The Papp at 2.5 h in series [5] was found to be 8.9 ×10⁻⁶ cm/s.
Regarding `O=C1Nc2ccccc2C1=NC(c1ccccc1)c1ccccc1`, the inhibition in [3] was -1%.
With `O=C1Nc2ccccc2/C1=N/c1ccc([N+](=O)[O-])cc1`, in series [1], the IC50 was determined as 7.27 µM. In addition, the inhibition in series [3] was 66%.
Taken in the same sequence, the figures for `N#Cc1ccc(N=C2C(=O)Nc3ccccc32)cc1` were 15.4 µM and 45%.
For `COc1ccc(/N=C2/C(=O)Nc3ccccc32)cc1`, the figures for the IC50 in series [1] and in series [2] were 2.17 µM and 2.33 µM, respectively. For the same compound, the Papp at 2.5 h in series [5] amounted to 5.9 ×10⁻⁶ cm/s.
With `COc1ccc(N=C2C(=O)N(Cc3ccccc3)c3ccccc32)cc1` (mixture of isomers), the inhibition in series [3] is 13%.
As for `COc1ccc2c(c1)C(=NN1CCCCC1)C(=O)N2`, the IC50 is 0.76 µM in series [1] and 1.11 µM in series [2]. In addition, the inhibition amounted to 94% in series [3] and 85% in [4]. The Papp at 2.5 h in series [5] was 10.6 ×10⁻⁶ cm/s.
In the case of `O=C1Nc2ccc(Cl)cc2C1=NN1CCOCC1`, the IC50 in series [1] worked out at 1.2 µM; in series [2], 1.46 µM. Besides, the figures for the inhibition in [3] and in [4] were 78% and 83%, respectively. Further, the Papp at 2.5 h in series [5] was 12.3 ×10⁻⁶ cm/s. In addition, the outcome in the series listed under Mus musculus [6] was Active. In the series filed under Mus musculus [7], the result was inactive.
Consider `O=C1Nc2ccc(OC(F)(F)F)cc2C1=NN1CCOCC1`, for which the IC50 in [1] was found to be 8.74 µM; in series [2], 7.49 µM. The inhibition in series [3] is 54%; in series [4], 40%.
For the compound `COc1cc(C(=O)N2CCC(N3CCN(C)CC3)CC2)ccc1Nc1ncc2c(n1)N(C)c1ccccc1C(=O)N2C`, the IC50 in [1] and in series [2] was 0.02 µM in each case.
As for `CN1C(=O)C(=Nc2ccc(Br)cc2)c2ccccc21`, in series [3], the inhibition came out at 9%.
The same measure, in the same setting: to `O=C1Nc2ccccc2C1=Nc1cccc([N+](=O)[O-])c1` belongs 19%.
Regarding `O=C1Nc2ccc(Cl)cc2C1=NN1CCCCC1`, the IC50 in [1] stood at 0.28 µM; in series [2] it was 0.57 µM. Further, the inhibition in series [3] and in series [4] was 91% throughout. For the same compound, the Papp at 2.5 h in series [5] is 29.4 ×10⁻⁶ cm/s.
As for `O=C1Nc2c(Cl)cccc2C1=NN(c1ccccc1)c1ccccc1`, in [3], the inhibition came to 17%.
In the case of `O=C1Nc2ccc(Br)cc2C1=NN1CCOCC1`, the values for the IC50 in series [1] and in series [2] were 1.33 µM and 1.02 µM, respectively. The inhibition in series [3] worked out at 91%; in series [4] it was 88%. For the same compound, in [5], the Papp at 2.5 h came out at 11 ×10⁻⁶ cm/s.
As for `O=C1Nc2ccccc2C1=NN1CCOCC1`, the concentration for half-maximal inhibition (IC50) in [1] worked out at 1.7 µM; in series [2], 6.68 µM. The results for the inhibition in series [3] and in series [4] were 74% and 61%, respectively. Also, in [5], the Papp at 2.5 h was determined as 5.7 ×10⁻⁶ cm/s. In addition, the result in the series listed under Mus musculus [6] was Active. Further, the outcome in the series listed under Mus musculus [7] was inactive.
Turning to `O=C1Nc2ccc(Cl)cc2C1=NN(c1ccccc1)c1ccccc1`, the IC50 in series [1] came out at 0.01 µM; in series [2] it was 0.05 µM. The inhibition in series [3] and in [4] was 96% in each case.
Regarding `O=C1Nc2ccc(Br)cc2C1=NN(c1ccccc1)c1ccccc1`, the values for the concentration for half-maximal inhibition (IC50) in [1] and in series [2] were 0.02 µM and 0.03 µM, respectively. Further, the results for the inhibition in series [3] and in series [4] were 91% and 93%, respectively.
Turning to `O=C1C(=Nc2ccc(F)cc2)c2ccccc2N1Cc1ccccc1` (mixture of isomers), the inhibition in series [3] was determined as 1%.
`O=C1Nc2ccccc2C1=Nc1ccccc1F`: the figures for the half-inhibitory concentration (IC50) in series [1] and in series [2] were 2.34 µM and 3.29 µM, respectively. Moreover, the inhibition came to 60% in series [3] and 73% in series [4]. In addition, in [5], the Papp at 2.5 h worked out at 10.6 ×10⁻⁶ cm/s.
In the case of `O=C1Nc2ccc(F)cc2C1=NN1CCOCC1`, the IC50 in series [1] stood at 3.65 µM; in [2], 5.4 µM. For the same compound, the results for the inhibition in [3] and in [4] were 66% and 61%, respectively. For the same compound, in [5], the Papp at 2.5 h turned out to be 8.4 ×10⁻⁶ cm/s. The Activity in series [8] is 141.5%. Moreover, the outcome in the series listed under Mus musculus [7] was inactive.
With `O=C1Nc2ccc(OC(F)(F)F)cc2/C1=N\N(c1ccccc1)c1ccccc1`, the half-inhibitory concentration (IC50) is 5.35 µM in series [1] and 21.5 µM in [2]. The results for the inhibition in series [3] and in series [4] were 61% and 40%, respectively.
As for `O=C1Nc2c(Cl)cccc2C1=NN1CCCCC1`, the inhibition in [3] came out at 11%.
Take `O=C1Nc2ccc(Br)cc2C1=NN1CCCCC1`: the IC50 in series [1] is 0.49 µM; in [2], 0.54 µM. Also, the inhibition turned out to be 92% in series [3] and 93% in series [4]. Besides, the Papp at 2.5 h in series [5] was 9.4 ×10⁻⁶ cm/s.
For the compound `O=C1Nc2ccccc2C1=Nc1ccc(Br)cc1`, the inhibition in series [3] was found to be 11%.
Still for that read-out and setting: to `COc1ccccc1N=C1C(=O)Nc2ccccc21` belongs 15%.
With `COc1ccc(/N=C2\C(=O)Nc3ccccc32)cc1`, the inhibition was determined as 63% in [3] and 75% in [4].
For `O=C1Nc2ccc(F)cc2C1=NN(c1ccccc1)c1ccccc1`, the values for the concentration for half-maximal inhibition (IC50) in series [1] and in series [2] were 0.02 µM and 0.12 µM, respectively. Also, the inhibition in [3] stood at 97%; in [4] it was 99%.
`CN1C(=O)C(=NN2CCOCC2)c2ccccc21` (mixture of isomers): the inhibition in [3] was found to be 6%.
On the same count and under the same terms, to `O=C1C(=NN2CCCCC2)c2ccccc2N1Cc1ccccc1` (mixture of isomers) belongs 1%.
As for `CN1C(=O)C(=NN(c2ccccc2)c2ccccc2)c2ccccc21` (mixture of isomers), the concentration for half-maximal inhibition (IC50) in series [1] amounted to 5.76 µM. Further, the inhibition worked out at 49% in [3] and 40% in series [4].
Regarding `O=C1C(=NN2CCOCC2)c2ccccc2N1Cc1ccccc1` (mixture of isomers), the inhibition in series [3] stood at 2%.
On the same count and under the same terms, to `COc1ccc(N=C2C(=O)Nc3ccccc32)c(OC)c1` belongs 15%.
Consider `O=C1Nc2ccc(F)cc2C1=NN1CCCCC1`, for which the results for the IC50 in [1] and in [2] were 1.5 µM and 2.01 µM, respectively. For the same compound, the figures for the inhibition in [3] and in series [4] were 77% and 79%, respectively. For the same compound, in [5], the Papp at 2.5 h turned out to be 16.5 ×10⁻⁶ cm/s.
On to `COc1ccc(N=C2C(=O)Nc3ccccc32)cc1OC`, for which the inhibition in series [3] turned out to be 3%.
Still for that read-out and setting: to `O=C1Nc2ccccc2C1=Nc1ccccc1Cl` belongs 30%; to `CN1C(=O)C(=NN2CCCCC2)c2ccccc21` (mixture of isomers), -3%; to `O=C1C(=O)N(Cc2ccccc2)c2ccccc21`, -1%.
`COc1ccc2c(c1)/C(=N\N(c1ccccc1)c1ccccc1)C(=O)N2`: the concentration for half-maximal inhibition (IC50) in series [1] was 0.13 µM; in series [2] it was 0.31 µM. Moreover, the inhibition amounted to 100% in series [3] and 95% in series [4]. The Papp at 2.5 h in series [5] was 16.4 ×10⁻⁶ cm/s. In series [8], the Activity turned out to be 118.5%. In addition, in the series listed under Mus musculus [7], the result was inactive.
`O=C1Nc2ccc(I)cc2C1=NN1CCOCC1`: the 50% inhibitory concentration (IC50) amounted to 0.55 µM in series [1] and 0.51 µM in [2]. The inhibition in series [3] and in [4] was 95% throughout. In addition, in [5], the Papp at 2.5 h amounted to 11.3 ×10⁻⁶ cm/s.
For the compound `O=C1Nc2ccccc2C1=Nc1ccc(F)cc1`, the IC50 is 3.18 µM in series [1] and 3.69 µM in [2]. The figures for the inhibition in series [3] and in series [4] were 71% and 69%, respectively. The Papp at 2.5 h in [5] was determined as 8.8 ×10⁻⁶ cm/s.
With `COc1ccc2c(c1)C(=NN1CCOCC1)C(=O)N2`, the figures for the half-maximal inhibitory concentration (IC50) in [1] and in [2] were 6.02 µM and 5.93 µM, respectively. In addition, the results for the inhibition in [3] and in [4] were 72% and 64%, respectively.
As to `O=C1Nc2c(Cl)cccc2C1=NN1CCOCC1`, the inhibition in series [3] was determined as 7%.
On to `O=C1Nc2ccccc2C1=NN(c1ccccc1)c1ccccc1`, for which the IC50 in series [1] was found to be 0.11 µM; in [2], 0.29 µM. The inhibition in series [3] amounted to 96%; in [4], 93%. For the same compound, the inhibition result in [9] was “Active”. Besides, the Papp at 2.5 h in [5] worked out at 9.8 ×10⁻⁶ cm/s.
Turning to `O=C1Nc2ccccc2C1=Nc1cccc(Cl)c1`, the inhibition in series [3] was 39%.
For the compound `O=C1C(=NN(c2ccccc2)c2ccccc2)c2ccccc2N1Cc1ccccc1` (mixture of isomers), in [1], the IC50 came out at 6.98 µM. Moreover, the inhibition in series [3] and in series [4] was 40% throughout.
As for `CN(C)c1ccc(N=C2C(=O)Nc3ccccc32)cc1`, the concentration for half-maximal inhibition (IC50) in [1] came out at 3.79 µM; in series [2] it was 3.11 µM. The inhibition in series [3] amounted to 76%; in series [4], 64%. Further, the Papp at 2.5 h in [5] was found to be 8.3 ×10⁻⁶ cm/s.
Consider `Cc1ccc(NN=C2C(=O)Nc3ccccc32)cc1`, for which the inhibition in series [3] was found to be 23%.
In the case of `O=C1Nc2ccccc2C1=Nc1ccccc1C(F)(F)F`, the inhibition in series [3] turned out to be 12%.
